Key:
Experiment in all cases: relative viability (nuclei count vs DMSO), 5 days (fraction); higher = more cells survive
GSK-J4 + Luminespib = compound: CCOC(=O)CCNc1cc(N2CCc3ccccc3CC2)nc(-c2ccccn2)n1 [GSK-J4] + CCNC(=O)c1noc(-c2cc(C(C)C)c(O)cc2O)c1-c1ccc(CN2CCOCC2)cc1 [Luminespib] (partner 0.01 µM)
Outline: (§1)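 Lung cancer cell lines were seeded in 1536-well plates and dosed by pin tool the next day, with either a single drug or a fixed anchor-drug dose combined with five library-drug doses (not always all listed) spaced in √10 steps. Five days later, one step fixed the cells and stained their nuclei (final 0.05% Triton X-100, 1% formaldehyde, 1 ug/ml Hoechst), and nuclei were counted on 4× images. Relative viability is the nuclei count in treated wells divided by the count in vehicle wells, and each value is the median of duplicate plates.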

GSK-J4 + Crizotinib = compound: CCOC(=O)CCNc1cc(N2CCc3ccccc3CC2)nc(-c2ccccn2)n1 [GSK-J4] + C[C@@H](Oc1cc(-c2cnn(C3CCNCC3)c2)cnc1N)c1c(Cl)ccc(F)c1Cl [Crizotinib] (partner 1 µM)
Outline: as §1

GSK-J4 + Pemetrexed = compound: CCOC(=O)CCNc1cc(N2CCc3ccccc3CC2)nc(-c2ccccn2)n1 [GSK-J4] + Nc1nc2[nH]cc(CCc3ccc(C(=O)N[C@@H](CCC(=O)O)C(=O)O)cc3)c2c(=O)[nH]1 [Pemetrexed] (partner 0.2 µM)
Outline: as §1

AZ3146 + OSI-027 = compound: CN1CCC(CC1)OC2=CC(=C(C=C2)NC3=NC=C4C(=N3)N(C(=O)N4C)C5CCCC5)OC [AZ3146] + COc1cccc2cc(-c3nc([C@H]4CC[C@H](C(=O)O)CC4)n4ncnc(N)c34)[nH]c12 [OSI-027] (partner 0.5 µM)
Outline: as §1

Row | Cell Line | relative viability (GSK-J4 + Luminespib; first compound 0.5 µM) | relative viability (GSK-J4 + Luminespib; first compound 1.581 µM) | relative viability (GSK-J4 + Luminespib; first compound 5 µM) | relative viability (GSK-J4 + Luminespib; first compound 15.81 µM) | relative viability (GSK-J4 + Luminespib; first compound 50 µM) | relative viability (GSK-J4 + Crizotinib; first compound 0.5 µM) | relative viability (GSK-J4 + Crizotinib; first compound 1.581 µM) | relative viability (GSK-J4 + Crizotinib; first compound 5 µM) | relative viability (GSK-J4 + Crizotinib; first compound 15.81 µM) | relative viability (GSK-J4 + Crizotinib; first compound 50 µM) | relative viability (GSK-J4 + Pemetrexed; first compound 0.5 µM) | relative viability (GSK-J4 + Pemetrexed; first compound 1.581 µM) | relative viability (GSK-J4 + Pemetrexed; first compound 5 µM) | relative viability (GSK-J4 + Pemetrexed; first compound 15.81 µM) | relative viability (GSK-J4 + Pemetrexed; first compound 50 µM) | relative viability (AZ3146 + OSI-027; first compound 0.08 µM) | relative viability (AZ3146 + OSI-027; first compound 0.253 µM) | relative viability (AZ3146 + OSI-027; first compound 0.8 µM) | relative viability (AZ3146 + OSI-027; first compound 2.53 µM) | relative viability (AZ3146 + OSI-027; first compound 8 µM)
1 | NCI-H322M | 0.857 | 0.756 | 0.953 | 0.646 | 0.542 | 0.976 | 0.779 | 0.828 | 0.91 | 0.83 | 0.638 | 0.588 | 0.672 | 0.394 | 0.682 | 0.51 | 0.581 | 0.509 | 0.601 | 0.48
2 | NCI-H358 | 0.292 | 0.304 | 0.354 | 0.397 | 0.337 | 0.643 | 0.579 | 0.537 | 0.55 | 0.589 | 0.237 |  | 0.171 | 0.171 | 0.188 | 0.762 | 0.753 | 0.661 | 0.82 | 0.431
3 | NCI-H441 | 0.303 | 0.298 | 0.476 | 0.394 | 0.308 | 0.74 | 0.574 | 0.643 | 0.697 | 0.775 | 0.26 | 0.226 | 0.303 | 0.249 | 0.284 | 0.611 | 0.656 | 0.528 | 0.663 | 0.529
4 | NCI-H460 | 0.0274 | 0.0313 | 0.03 | 0.0363 | 0.0333 | 0.983 | 0.734 | 0.832 | 0.321 | 0.821 | 0.0749 |  | 0.0554 | 0.0643 | 0.0656 | 0.636 | 0.72 | 0.622 | 0.622 | 0.423
5 | NCI-H520 | 0.215 | 0.242 | 0.207 | 0.194 | 0.197 | 0.737 | 0.633 | 0.846 | 0.805 | 0.553 | 0.632 | 0.5 | 0.655 | 0.57 | 0.547 | 0.234 | 0.255 | 0.234 | 0.292 | 0.233
6 | NCI-H596 | 0.981 | 0.969 | 1.23 | 0.941 | 0.807 | 1.11 | 1.04 | 0.932 | 0.949 | 0.992 | 0.519 | 0.485 | 0.473 | 0.465 | 0.549 | 0.683 | 0.698 | 0.669 | 0.762 | 0.563
7 | NCI-H647 | 0.29 | 0.125 | 0.235 | 0.166 | 0.125 | 1.01 | 0.759 | 0.865 | 0.991 | 1.01 | 0.175 | 0.177 | 0.168 | 0.184 | 0.205 | 0.55 | 0.656 | 0.567 | 0.684 | 0.697
8 | NCI-H650 | 0.688 | 0.682 | 0.597 | 0.749 | 0.519 | 0.568 | 0.594 | 0.525 | 0.494 | 0.434 | 0.82 | 0.843 |  | 0.833 | 0.842 | 0.504 | 0.461 | 0.359 | 0.588 | 0.506

From the supplement of paper PMC10307832
